From patent US20230234920A1, “Azirine Containing Compounds as Anti-Angiogenesis Agents and a Process for the Preparation Thereof” (COUNCIL OF SCIENTIFIC & INDUSTRIAL RESEARCH, priority 2020, published 2023)
Each block holds one compound with its values, some of them ahead of it.

Tests used:
[1] = Intramuscular pharmacokinetic study of bulk compound 1 and chiral isomers; format: in vivo, male Sprague Dawley (SD) rats; conditions: IM 20 mg/kg
Procedure: In vivo pharmacokinetic study was performed in male Sprague Dawley (SD) rats (n=4). Intramuscular (IM) formulation of bulk of compound 1 as well as chiral isomer-1 and chiral isomer-2 was prepared by dissolving accurately weighed quantity of compound 1 (20 mg) in 1 mL of olive oil followed by vortexing for 2 min and sterilize through syringe filter. Blood samples were collected from the retro orbital plexus of rats under light ether anesthesia into microfuge tubes containing heparin as an anti-coagulant at 0.25, 0.5, 1, 3, 5, 7, 9, 24, 30, 48 and 72 hours post-dosing after intramuscular dose. Plasma sample was harvested by centrifuging the blood at 13000 rpm for 10 min on Sigma 1-15 K (Frankfurt, Germany) and stored frozen at −70±10° C. until bioanalysis. Each plasma sample (100 μl) was processed using protein precipitation method using 200 μl acetonitrile containing medicarpine as internal standard (I.S.) as protein precipitant, and 10 μl of the supernatant was injected for LC-MS/MS.

[2] = Intramuscular pharmacokinetic study of chiral isomers 1 and 2; format: in vivo, male Sprague Dawley (SD) rats; conditions: IM 20 mg/kg
Procedure: In vivo pharmacokinetic study was performed in male Sprague Dawley (SD) rats (n=4). Intramuscular (IM) formulation of compound 1 Chiral 1 and 2 were prepared by individually dissolving accurately weighed quantity of compound 1, chiral isomers 1 and 2 (20 mg) in 1 mL of olive oil followed by vortexing for 2 min and sterilize through syringe filter. Blood samples were collected from the retro orbital plexus of rats under light ether anesthesia into microfuge tubes containing heparin as an anti-coagulant at 0.25, 0.5, 1, 3, 5, 7, 9, 24, 30, 48 and 72 hours post-dosing after intramuscular dose. Plasma sample was harvested by centrifuging the blood at 13000 rpm for 10 min on Sigma 1-15 K (Frankfurt, Germany) and stored frozen at −70±10° C. until bioanalysis. Each plasma sample (100 μl) was processed using protein precipitation method using 200 μl acetonitrile containing medicarpine as internal standard (I.S.) as protein precipitant, and 10 μl of the supernatant was injected for LC-MS/MS.

HUVECs = test: Capillary-like tube formation assay (tubulogenesis); format: cell-based, human; conditions: for tubule formation: 6 h
Procedure: FIG. 2 represents effect of Compound 1 on capillary tube formation of HUVECs. Endothelial cells in Matrigel were incubated with ECM basal medium in the presence of compound 1 at the indicated concentrations for 6 h. Cell viability was assessed by Calcein-AM dye added few min. before the completion of 6 h. then photographs at 10×magnification were taken using an inverted microscope. The tubule length of HUVECs was quantified by Leica QWin software. Tubule network formation is expressed as a percentage of that vehicle (0.1% DMSO) treated cells (control).
FIG. 9 represents effect of racemic mixture (chiral isomer 1-1 and chiral isomer 2-1) of Compound 1 on capillary tube formation of HUVECs. Endothelial cells seeded in matrigel were incubated at the indicated concentrations of compound 1 racemic mixtures (1-1 and 2-1) with ECM basal medium for 6 h. Calcein-AM treatment was added to the ECs few minutes before completion of 6 h and pictures were captured using an inverted microscope at 10×magnification. The tubular structures of HUVECs were measured using Leica QWin software and tubulogenesis was expressed as a % of that vehicle (0.1% DMSO) treated cells (control) well.
HUVEC cells were incubated with or without sunitinib (20 nM) for 6 h at indicated concentrations of chiral isomers of Compound 1 (1-1 and 2-1). Photographs were taken using an inverted microscope at 10×magnification after Calcein-AM treatment to the ECs few minutes before completion of 6 h. The tubule length of HUVECs was quantified by Leica QWin software represented as a % of that vehicle (0.1% DMSO) treated cells (control) well.
To examine the effect of Compound 1 on angiogenesis, capillary tube formation assay was performed on regular or reduced growth factor Matrigel, taking VEGF (50 ng/mL) treated cells as a positive control and sunitinib (50 nM) as a negative control (FIG. 2). HUVECs seeded onto the matrigel with compound 1 at different concentrations of (10 μM, 5 μM, 1 μM, 800 nM, 500 nM, 250 nM, 125 nM, 75 nM, 50 nM, 25 nM and 10 nM) were incubated for six hours.
HUVECs (Human Umbilical Vein Endothelial Cells) were seeded onto the pre-coated matrigel (CORNING; 354230) in 96 wells plate at the rate of 11000 cells/well in incomplete ECM basal medium. Control group received vehicle, VEGF at 50 ng/mL as a positive and sunitinib at 50 nM as a negative control were used. Compound 1 at different dose concentrations (10 μM, 5 μM, 1 μM, 800 nM, 500 nM, 250 nM, 100 nM, 75 nM, 50 nM and 25 nM) were employed on seeded HUVECs in incomplete medium. Post 6 h of incubation Calcein-AM (Invitrogen) was added to all the respective groups and then the tubule pattern was observed and photographs were taken using an inverted fluorescent microscope (DM 6000, Leica Microsystems, USA). Relative tubule lengths were measured using Leica Q-Win software version 3.5.1. (Leica Microsystems, Switzerland).

Endothelin-1 receptor = test: Endothelin-1 induced contraction of isolated artery rings; set-up: species or system mice; conditions: all concentrations of ET-1
Source text: FIG. 15 represents effect of Compound 1 on endothelin-1 concentration-response curves. (A) Concentration-response curve of endothelin-1 in isolated carotid arteries of vehicle-treated (Control) and Compound 1 treated mice. (B) Concentration-response curve of endothelin-1 in isolated carotid arteries of vehicle-treated (Control) and compound 3 along with compound 8 treated mice.
To test for the selectivity of the putative Endothelin-1 receptor, we applied endothelin-1 or Compound 1 in a concentration dependent manner to the […] to observe its contraction inhibition activity (FIG. 15).

[3] = male, Sprague-Dawley, rat, plasma, intramuscular, 0.25 h
[4] = male, Sprague-Dawley, rat, plasma, intramuscular, 0.5 h
[5] = male, Sprague-Dawley, rat, plasma, intramuscular, 1 h
[6] = male, Sprague-Dawley, rat, plasma, intramuscular, 3 h
[7] = male, Sprague-Dawley, rat, plasma, intramuscular, 5 h
[8] = male, Sprague-Dawley, rat, plasma, intramuscular, 7 h
[9] = male, Sprague-Dawley, rat, plasma, intramuscular, 9 h
[10] = male, Sprague-Dawley, rat, plasma, intramuscular, 24 h
[11] = male, Sprague-Dawley, rat, plasma, intramuscular, 30 h
[12] = male, Sprague-Dawley, rat, plasma, intramuscular, 48 h
[13] = male, Sprague-Dawley, rat, plasma, intramuscular, 72 h
[14] = male, Sprague-Dawley, rat, plasma, mean ± S.D., n = 4
[15] = male, Sprague-Dawley, rat, plasma, mean ± S.D., n = 4, read-out: AUC0-72
[16] = male, Sprague-Dawley, rat, plasma, mean ± S.D., n = 4, read-out: Cmax

Cl ([1]; mean ± S.D., n = 4): 3.03 ± 0.415 mL/min/kg | Vd ([1]; mean ± S.D., n = 4): 4.273 ± 1.167 L/kg | concentration at 0.25 h [1, 3]: 1680 ± 1060 ng/mL | concentration at 0.5 h [1, 4]: 2090 ± 1650 ng/mL | concentration at 1 h [1, 5]: 2580 ± 1960 ng/mL | concentration at 3 h [1, 6]: 2560 ± 590 ng/mL | concentration at 5 h [1, 7]: 2460 ± 880 ng/mL | concentration at 7 h [1, 8]: 2120 ± 940 ng/mL | concentration at 9 h [1, 9]: 3440 ± 260 ng/mL | concentration at 24 h [1, 10]: 2470 ± 570 ng/mL | concentration at 30 h [1, 11]: 1730 ± 150 ng/mL | concentration at 48 h [1, 12]: 593 ± 220 ng/mL | concentration at 72 h [1, 13]: 109 ± 40 ng/mL | AUC(0-inf) [1, 14]: 111 ± 15 µg·h/mL | half-life [1, 14]: 16 ± 2.38 h | AUC(0-t) [1, 15]: 108 ± 15.9 µg·h/mL | Cmax [1, 16]: 3910 ± 847 ng/mL | MRT ([1]; male, Sprague-Dawley, rat, plasma, mean ± S.D., n = 4, read-out: MRT): 21 ± 0.463 h | Tmax ([1]; male, Sprague-Dawley, rat, plasma, mean ± S.D., n = 4, read-out: Tmax): 6.33 ± 4.62 h | Cl ([2]; mean ± S.D., n = 4): 2.67 ± 0.5 mL/min/kg | Vd ([2]; mean ± S.D., n = 4): 3.2 ± 0.84 L/kg | AUC(0-inf) [2, 14]: 121 ± 24.1 µg·h/mL | half-life [2, 14]: 13.3 ± 1.51 h | AUC(0-t) [2, 15]: 118 ± 24.8 µg·h/mL | Cmax [2, 16]: 4810 ± 1560 ng/mL | Tmax ([2]; male, Sprague-Dawley, rat, plasma, read-out: Tmax): 9 h
SMILES: CCOC(=O)[C@H]1N=C1CCc1ccc(OC)cc1 (single isomer, unassigned) [Chiral isomer (1-1)]

concentration at 0.25 h [2, 3]: 1520 ± 360 ng/mL | concentration at 0.5 h [2, 4]: 2150 ± 830 ng/mL | concentration at 1 h [2, 5]: 3020 ± 1330 ng/mL | concentration at 3 h [2, 6]: 3170 ± 940 ng/mL | concentration at 5 h [2, 7]: 3570 ± 100 ng/mL | concentration at 7 h [2, 8]: 3580 ± 750 ng/mL | concentration at 9 h [2, 9]: 4810 ± 1560 ng/mL | concentration at 24 h [2, 10]: 1930 ± 380 ng/mL | concentration at 30 h [2, 11]: 1550 ± 360 ng/mL | concentration at 48 h [2, 12]: 545 ± 90 ng/mL | concentration at 72 h [2, 13]: 110 ± 40 ng/mL
SMILES: CCOC(=O)[C@H]1N=C1CCc1ccc(OC)cc1 [Chiral isomer (1-1)]
tubule formation (HUVECs; 100 nM combined with sunitinib at 20 nM): approximately 15% | tubule formation (HUVECs; 250 nM): 100% | tubule formation (HUVECs; 500 nM): 50% | tubule formation (HUVECs; 1 μM): 50%

effect on ET-1 induced contraction of aortic rings (Endothelin-1 receptor): no effect
SMILES: CCCCCCCCCCCCC1=NC1C(=O)OCC (stereo not drawn) [Compound 3, Ethyl 3-dodecyl-2H-azirine-2-carboxylate]
IC50 value (HUVECs; endothelial tubule network assay, result in words): Not Active

effect on ET-1 induced contraction of aortic rings (Endothelin-1 receptor): no effect
SMILES: CCOC(=O)C1N=C1CCc1ccc(Cl)cc1 (stereo not drawn) [Compound 8, Ethyl 3-(4-chlorophenethyl)-2H-azirine-2-carboxylate]
IC50 (HUVECs; Homo sapiens, HUVEC, endothelial tubule network assay, anti-angiogenic activity, read-out: IC50 value): 500 nM
